# Laboratory results: article PMC7955114, “Discovery of fungal surface NADases predominantly present in pathogenic species” (Nature Communications, 2021)
# B1: Aspergillus fumigatus NADase (AfNADase), recombinant, from Sf9 insect cells (enzyme)
# chain: LQHTEDSLFPARCWPDPCAGITFQNDTYVCGDPRLGPVVLPQKFPLNNELRTYARFGALCPAEFLDKWATDVAPNGTYIYPPANGFALDTEEQPILGNATLPVGMKLDRFGSEYGTFLAPLGAPYIERSLPPSNLNTFDGMYPYNYHVYQVTKEFVVGLGPIAPWFEQPGMGTQFVTYTNVLGLIDDGYLRRLDESEYDEKVEYSNPYTPGPNQ
# modifications: N-linked glycosylation at N45, N95 and N118; disulfide bridges C33-80 and C38-50
# notes: also called A. fumigatus NADase; gene product AFUA_6G14470
# How the values were obtained:
# AfNADase [1] = biological target: T1, AfNADase (Aspergillus fumigatus, UniProt Q4WL81); experiment: X-ray structure, crystals soaked with NAD+; format: binding; conditions: active site of molecule A, EGTA-treated protein, Ca2+ absent, formed from 10 mM NAD+ soak
# T1 construct: gene nadA; N-glycosylated at N45, N95, N118; about 30 kDa; homodimer; thumb 20-117, TNT palm domain 117-234; mutants also in 293 cells (C-terminal His6)
# AfNADase [2] = biological target: T1, AfNADase; experiment: X-ray co-crystal structure; format: binding; conditions: non-hydrolysable substrate analogue, active site of molecule B; 5 mM BAD co-crystallized, 0.1 M sodium acetate pH 5, CaCl2
# NcNADase = biological target: T2, NcNADase (Neurospora crassa, UniProt Q7S936); experiment: HPLC cleavage assay; format: biochemical; conditions: 200 µM substrate, 50 mM Tris-HCl pH 8.0, 0.5 mM CaCl2, 150 mM NaCl, 20 °C (conditions described for AfNADase)
# T2 construct: gene NCU07948; secreted from transiently transfected 293 cells, codon-optimized, in pCMV-Flag5a (Flag tag), anti-FLAG purified, N-glycosylated
# [3] = tested on: NC(=O)c1ccc[n+]([C@@H]2O[C@H](COP(=O)(O)OP(=O)(O)OC[C@H]3O[C@@H](n4cnc5c(N)ncnc54)[C@H](OP(=O)(O)O)[C@@H]3O)[C@@H](O)[C@H]2O)c1; experiment: purified protein; conditions: 500 µM substrate, 0.2 nM enzyme, 25 mM sodium phosphate pH 5.8, 50 mM NaCl, 5 % D2O, 23 °C
# [4] = tested on: NC(=O)c1ccc[n+]([C@@H]2O[C@H](COP(=O)(O)OP(=O)(O)OC[C@H]3O[C@@H](n4cnc5c(N)ncnc54)[C@H](O)[C@@H]3O)[C@@H](O)[C@H]2O)c1; experiment: purified protein; conditions: 500 µM substrate, 0.2 nM enzyme, 25 mM sodium phosphate pH 5.8, 50 mM NaCl, 5 % D2O, 23 °C
# [5] = biological target: the molecule itself; experiment: SEC; purified recombinant AfNADase; conditions of the analysis not told in the text (Supplementary Fig. 2C-F)
# T2 sequence (Q7S936 20-243): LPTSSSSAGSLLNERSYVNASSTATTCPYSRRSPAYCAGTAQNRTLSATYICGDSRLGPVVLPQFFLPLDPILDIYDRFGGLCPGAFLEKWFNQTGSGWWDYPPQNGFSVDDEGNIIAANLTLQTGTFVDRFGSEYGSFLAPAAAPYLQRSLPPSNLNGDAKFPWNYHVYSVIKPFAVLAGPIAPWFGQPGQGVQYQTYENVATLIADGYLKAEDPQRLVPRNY
molecule,measurement,setting,value
Nc1ncnc2c1ncn2[C@@H]1O[C@H](COP(=O)(O)OP(=O)(O)OC[C@H]2OC(O)[C@H](O)[C@@H]2O)[C@@H](O)[C@H]1O (some centres unmarked) [ADPR],"X-ray structure, crystals soaked with NAD+",AfNADase [1]; bound together with nicotinamide,"the reaction products, Nam and ADPR, were bound to a putative active site"
NC(=O)c1cccc([C@@H]2O[C@H](COP(=O)(O)OP(=O)(O)OC[C@H]3O[C@@H](n4cnc5c(N)ncnc54)[C@H](O)[C@@H]3O)[C@@H](O)[C@H]2O)c1 [BAD],X-ray co-crystal structure,AfNADase [2],We were able to co-crystallize AfNADase with BAD bound to the active site
NC(=O)c1ccc[n+]([C@@H]2O[C@H](COP(=O)(O)OP(=O)(O)OC[C@H]3O[C@@H](n4cnc5c(N)ncnc54)[C@H](OP(=O)(O)O)[C@@H]3O)[C@@H](O)[C@H]2O)c1 [NADP^+],HPLC cleavage assay,NcNADase,Both AfNADase and NcNADase cleaved NAD^+ and NADP^+
NC(=O)c1ccc[n+]([C@@H]2O[C@H](COP(=O)(O)OP(=O)(O)OC[C@H]3O[C@@H](n4cnc5c(N)ncnc54)[C@H](O)[C@@H]3O)[C@@H](O)[C@H]2O)c1 [NAD^+],HPLC cleavage assay,NcNADase,Both AfNADase and NcNADase cleaved NAD^+ and NADP^+
NC(=O)c1cccnc1 [Nam],"X-ray structure, crystals soaked with NAD+",AfNADase [1]; bound together with ADP-ribose,"the reaction products, Nam and ADPR, were bound to a putative active site"
AfNADase (Aspergillus fumigatus Af293),Km,[3],106 ± 27.1 µM
same,Km,[4],119.7 ± 40.8 µM
B1,stoichiometry N,[5],2
